# Measured values as given in ChEMBL document CHEMBL1201862, “PubChem BioAssay data set” (2004).
#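 Exposure lasted 48 hours, with cells grown in 96-well plates and compounds tested at five concentrations. GI50 is the concentration that inhibits growth by half.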 The source made the active and inactive calls. Rule as the data show it: active = GI50 up to about 1.1 µM and inactive = higher.
# Experiments:
# Assay in all cases: growth of human tumour cells (NCI), 48 h
# M19-MEL = test system: M19-MEL
# HOP-92 = test system: HOP-92
# DLD-1 = test system: DLD-1
# SK-OV-3 = test system: SK-OV-3
# NCI-H23 = test system: NCI-H23
# DMS-114 = test system: DMS-114
# KM12 = test system: KM12
# SN12C = test system: SN12C
# SW-620 = test system: SW-620
# SK-MEL-28 = test system: SK-MEL-28
# A498 = test system: A498
# SR = test system: SR
# TK-10 = test system: TK-10
# HCT-116 = test system: HCT-116
# HOP-18 = test system: HOP-18
# UO-31 = test system: UO-31
# SNB-19 = test system: SNB-19
# LXFL 529 = test system: LXFL 529
# LOX IMVI = test system: LOX IMVI
# OVCAR-8 = test system: OVCAR-8
# SK-MEL-2 = test system: SK-MEL-2
# Malme-3M = test system: Malme-3M
# HT-29 = test system: HT-29
# NCI-H522 = test system: NCI-H522
# UACC-62 = test system: UACC-62
# COLO 205 = test system: COLO 205
# SK-MEL-5 = test system: SK-MEL-5
# M14 = test system: M14
# SF-268 = test system: SF-268
# SF-539 = test system: SF-539
# SF-295 = test system: SF-295
# CCRF-CEM = test system: CCRF-CEM
# U-251 = test system: U-251
# DMS-273 = test system: DMS-273
# MOLT-4 = test system: MOLT-4
# 786-0 = test system: 786-0
# NCI-H460 = test system: NCI-H460
# CAKI-1 = test system: CAKI-1
# RXF 393 = test system: RXF 393
# ACHN = test system: ACHN
# HCC 2998 = test system: HCC 2998
# HOP-62 = test system: HOP-62
# OVCAR-3 = test system: OVCAR-3
# OVCAR-5 = test system: OVCAR-5
# HCT-15 = test system: HCT-15
# K562 = test system: K562
# SNB-75 = test system: SNB-75
# OVCAR-4 = test system: OVCAR-4
# A549 = test system: A549
# HL-60 = test system: HL-60
# RPMI-8226 = test system: RPMI-8226
# IGROV-1 = test system: IGROV-1
# EKVX = test system: EKVX
# KM-20L2 = test system: KM-20L2
# NCI-H226 = test system: NCI-H226
# UACC-257 = test system: UACC-257
# SNB-78 = test system: SNB-78
smiles,measurement,setting,value
c1ccc2[nH]c(CNc3ccc(C4C[Se]N=N4)cc3)nc2c1 (centres undefined),GI50,M19-MEL,41.3 µM (inactive)
same,GI50,HOP-92,> 100 µM (inactive)
same,GI50,DLD-1,> 100 µM (inactive)
same,GI50,SK-OV-3,> 100 µM (inactive)
same,GI50,NCI-H23,30.3 µM (inactive)
same,GI50,DMS-114,21.8 µM (inactive)
same,GI50,KM12,26.4 µM (inactive)
same,GI50,SN12C,86.9 µM (inactive)
same,GI50,SW-620,95.7 µM (inactive)
same,GI50,SK-MEL-28,78.9 µM (inactive)
same,GI50,A498,> 100 µM (inactive)
same,GI50,SR,9.86 µM (inactive)
same,GI50,TK-10,> 100 µM (inactive)
same,GI50,HCT-116,41.2 µM (inactive)
same,GI50,HOP-18,> 100 µM (inactive)
same,GI50,UO-31,38.9 µM (inactive)
same,GI50,SNB-19,84.1 µM (inactive)
same,GI50,LXFL 529,18.7 µM (inactive)
same,GI50,LOX IMVI,40.6 µM (inactive)
same,GI50,OVCAR-8,28.5 µM (inactive)
same,GI50,SK-MEL-2,33 µM (inactive)
same,GI50,Malme-3M,25.3 µM (inactive)
same,GI50,HT-29,> 100 µM (inactive)
same,GI50,NCI-H522,29 µM (inactive)
same,GI50,UACC-62,24.7 µM (inactive)
same,GI50,COLO 205,48.6 µM (inactive)
same,GI50,SK-MEL-5,15.1 µM (inactive)
same,GI50,M14,67.3 µM (inactive)
same,GI50,SF-268,47.3 µM (inactive)
same,GI50,SF-539,> 100 µM (inactive)
same,GI50,SF-295,28.4 µM (inactive)
same,GI50,CCRF-CEM,25.7 µM (inactive)
same,GI50,U-251,55.8 µM (inactive)
same,GI50,DMS-273,67.1 µM (inactive)
same,GI50,MOLT-4,9.02 µM (inactive)
same,GI50,786-0,> 100 µM (inactive)
same,GI50,NCI-H460,41.2 µM (inactive)
same,GI50,CAKI-1,> 100 µM (inactive)
same,GI50,RXF 393,> 100 µM (inactive)
same,GI50,ACHN,> 100 µM (inactive)
same,GI50,HCC 2998,> 100 µM (inactive)
same,GI50,HOP-62,> 100 µM (inactive)
same,GI50,OVCAR-3,21.7 µM (inactive)
same,GI50,OVCAR-5,> 100 µM (inactive)
same,GI50,HCT-15,> 100 µM
same,GI50,K562,27.9 µM (inactive)
same,GI50,SNB-75,43.2 µM (inactive)
same,GI50,OVCAR-4,27.5 µM (inactive)
same,GI50,A549,> 100 µM (inactive)
same,GI50,HL-60,28.2 µM (inactive)
same,GI50,RPMI-8226,25.6 µM (inactive)
same,GI50,IGROV-1,> 100 µM (inactive)
C=C1C(=O)O[C@H]2C[C@@H](C)[C@@H]3CC(=O)OC[C@@]3(C)CC12 (some centres undefined),GI50,M19-MEL,34.5 µM (inactive)
same,GI50,HOP-92,16.1 µM (inactive)
same,GI50,DLD-1,23.4 µM (inactive)
same,GI50,SK-OV-3,97.7 µM (inactive)
same,GI50,NCI-H23,23.3 µM (inactive)
same,GI50,KM12,20.5 µM (inactive)
same,GI50,SN12C,21.6 µM (inactive)
same,GI50,SW-620,16.7 µM (inactive)
same,GI50,SK-MEL-28,19.7 µM (inactive)
same,GI50,TK-10,22.8 µM (inactive)
same,GI50,HCT-116,21 µM (inactive)
same,GI50,HOP-18,36.5 µM (inactive)
same,GI50,UO-31,49.1 µM (inactive)
same,GI50,SNB-19,53.1 µM (inactive)
same,GI50,LOX IMVI,24.9 µM (inactive)
same,GI50,OVCAR-8,17.9 µM (inactive)
same,GI50,SK-MEL-2,35.8 µM (inactive)
same,GI50,Malme-3M,17.9 µM (inactive)
same,GI50,HT-29,17.5 µM (inactive)
same,GI50,NCI-H522,3.56 µM (inactive)
same,GI50,UACC-62,19.2 µM (inactive)
same,GI50,COLO 205,20.9 µM (inactive)
same,GI50,SK-MEL-5,34.3 µM (inactive)
same,GI50,M14,14.4 µM (inactive)
same,GI50,SF-268,27.4 µM (inactive)
same,GI50,SF-539,21.9 µM (inactive)
same,GI50,SF-295,21.6 µM (inactive)
same,GI50,CCRF-CEM,12.9 µM (inactive)
same,GI50,EKVX,27.5 µM (inactive)
same,GI50,U-251,97.3 µM (inactive)
same,GI50,DMS-273,28.6 µM (inactive)
same,GI50,MOLT-4,27.5 µM (inactive)
same,GI50,786-0,21.2 µM (inactive)
same,GI50,NCI-H460,18.8 µM (inactive)
same,GI50,CAKI-1,18 µM (inactive)
same,GI50,ACHN,21.7 µM (inactive)
same,GI50,KM-20L2,18.5 µM (inactive)
same,GI50,HCC 2998,32.1 µM (inactive)
same,GI50,HOP-62,44.8 µM (inactive)
same,GI50,OVCAR-3,28 µM (inactive)
same,GI50,HCT-15,29.4 µM
same,GI50,K562,17.5 µM (inactive)
same,GI50,SNB-75,30.1 µM (inactive)
same,GI50,OVCAR-4,22.8 µM (inactive)
same,GI50,A549,27.8 µM (inactive)
same,GI50,RPMI-8226,21.4 µM (inactive)
same,GI50,IGROV-1,51.6 µM (inactive)
CC(C)=CCC/C(C)=C/CC/C(C)=C/CCC1(C)CCC([C@H](C)C(=O)O)OO1.CC1=C(CC/C(C)=C/CCC2(C)CCC([C@H](C)C(=O)O)OO2)C(C)(C)CCC1 (some centres undefined),GI50,M19-MEL,> 100 µM (inactive)
same,GI50,HOP-92,> 100 µM (inactive)
same,GI50,DLD-1,> 100 µM (inactive)
same,GI50,NCI-H23,> 100 µM (inactive)
same,GI50,DMS-114,> 100 µM (inactive)
same,GI50,KM12,> 100 µM (inactive)
same,GI50,SN12C,> 100 µM (inactive)
same,GI50,SW-620,> 100 µM (inactive)
same,GI50,SK-MEL-28,> 100 µM (inactive)
same,GI50,TK-10,> 100 µM (inactive)
same,GI50,HCT-116,> 100 µM (inactive)
same,GI50,UO-31,> 100 µM (inactive)
same,GI50,SNB-19,> 100 µM (inactive)
same,GI50,LXFL 529,> 100 µM (inactive)
same,GI50,LOX IMVI,> 100 µM (inactive)
same,GI50,OVCAR-8,> 100 µM (inactive)
same,GI50,SK-MEL-2,> 100 µM (inactive)
same,GI50,Malme-3M,> 100 µM (inactive)
same,GI50,HT-29,> 100 µM (inactive)
same,GI50,NCI-H522,> 100 µM (inactive)
same,GI50,COLO 205,> 100 µM (inactive)
same,GI50,M14,> 100 µM (inactive)
same,GI50,SF-268,> 100 µM (inactive)
same,GI50,SF-539,> 100 µM (inactive)
same,GI50,SF-295,> 100 µM (inactive)
same,GI50,EKVX,> 100 µM (inactive)
same,GI50,U-251,> 100 µM (inactive)
same,GI50,DMS-273,> 100 µM (inactive)
same,GI50,786-0,> 100 µM (inactive)
same,GI50,NCI-H460,> 100 µM (inactive)
same,GI50,CAKI-1,> 100 µM (inactive)
same,GI50,RXF 393,> 100 µM (inactive)
same,GI50,ACHN,> 100 µM (inactive)
same,GI50,NCI-H226,> 100 µM (inactive)
same,GI50,KM-20L2,> 100 µM (inactive)
same,GI50,HCC 2998,85.3 µM (inactive)
same,GI50,HOP-62,> 100 µM (inactive)
same,GI50,OVCAR-3,> 100 µM (inactive)
same,GI50,OVCAR-5,> 100 µM (inactive)
same,GI50,SNB-75,> 100 µM (inactive)
same,GI50,OVCAR-4,> 100 µM (inactive)
same,GI50,UACC-257,> 100 µM (inactive)
same,GI50,SNB-78,> 100 µM (inactive)
same,GI50,A549,> 100 µM (inactive)
same,GI50,HL-60,> 100 µM (inactive)
